Legend:
[1] = test system: ERK phosphorylation in KYSE-520 cells; assay: Phospho-ERK cellular assay; type: cell-based; settings: Homo sapiens, KYSE-520, 2 h, KYSE-520 cells, 2 h at 37° C., phospho-ERK1/2 (Thr202/Tyr204) TR-FRET; read-out: PERK IC50
Procedure, shortened: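 TR-FRET read-out of ERK1/2 Thr202/Tyr204 phosphorylation was taken after overnight antibody incubation at room temperature. Before that, KYSE-520 cells were treated 2 h at 37 °C with compound dilutions and lysed 30 min. Percent inhibition relative to vehicle and cell-free wells was fitted four-parametrically to give IC50.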

[2] = molecular target: SHP-2 enzyme (Met1-Leu525) (Homo sapiens (Human), UniProt Q06124); assay: SHP2 inhibition enzymatic assay; type: biochemical; settings: 0.5 nM SHP-2 activated by 500 nM IRS1 peptide, 75 μM DiFMUP substrate; read-out: SHP2wt-IC50
Procedure, shortened: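 Compounds were preincubated 30 min with 0.5 nM SHP-2 (Met1-Leu525) plus 500 nM IRS1 activating peptide (pH 7.2 HEPES, 5 mM DTT), then 75 μM DiFMUP substrate reacted 30 min at room temperature. After bpV quench, DiFMUP fluorescence gave % inhibition; four-parameter logistic fit yielded IC50.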

SHP-2 enzyme (Met1-Leu525), sequence (Q06124 1-525): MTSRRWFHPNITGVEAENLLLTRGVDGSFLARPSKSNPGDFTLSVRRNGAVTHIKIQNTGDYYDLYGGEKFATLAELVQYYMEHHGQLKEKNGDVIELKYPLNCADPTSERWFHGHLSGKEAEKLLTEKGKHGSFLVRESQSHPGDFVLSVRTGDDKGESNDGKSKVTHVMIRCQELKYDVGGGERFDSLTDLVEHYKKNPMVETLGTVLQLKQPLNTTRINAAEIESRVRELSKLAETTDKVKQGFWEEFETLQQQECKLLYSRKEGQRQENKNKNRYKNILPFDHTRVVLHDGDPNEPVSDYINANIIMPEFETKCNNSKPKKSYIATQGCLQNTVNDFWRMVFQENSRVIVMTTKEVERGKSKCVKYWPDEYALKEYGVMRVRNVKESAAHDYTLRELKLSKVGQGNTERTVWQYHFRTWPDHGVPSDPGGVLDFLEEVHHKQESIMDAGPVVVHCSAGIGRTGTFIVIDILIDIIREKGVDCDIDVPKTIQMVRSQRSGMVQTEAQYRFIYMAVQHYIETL

SMILES | IC50 [1] | IC50 [2]
NC[C@]1(c2ccccc2F)[C@@H]2CCN(c3cnc4c(-c5ccc6[nH]c(=O)[nH]c6c5)n[nH]c4n3)C[C@@H]21 [Example 239, 5-(6-((1S,6R,7R)-7-(aminomethyl)-7-(2-fluorophenyl)-3-azabicyclo[4.1.0]heptan-3-yl)-1H-pyrazolo[3,4-b]pyrazin-3-yl)-1,3-dihydro-2H-benzo[d]imidazol-2-one] | < 1000 nM | < 500 nM
NC[C@]1(c2ccccc2F)[C@@H]2CCN(c3cnc4c(-c5ccc6c(=O)[nH]ccc6c5)n[nH]c4n3)C[C@@H]21 [Example 240, 6-(6-((1S,6R,7R)-7-(aminomethyl)-7-(2-fluorophenyl)-3-azabicyclo[4.1.0]heptan-3-yl)-1H-pyrazolo[3,4-b]pyrazin-3-yl)isoquinolin-1(2H)-one] | < 1000 nM | < 500 nM
NC[C@]1(c2ccccc2F)[C@@H]2CCN(c3cnc4c(-c5ccc(C(N)=O)c(Cl)c5Cl)n[nH]c4n3)C[C@@H]21 [Example 241, 4-(6-((1S,6R,7R)-7-(aminomethyl)-7-(2-fluorophenyl)-3-azabicyclo[4.1.0]heptan-3-yl)-1H-pyrazolo[3,4-b]pyrazin-3-yl)-2,3-dichlorobenzamide] | < 1000 nM | < 500 nM
NC[C@]1(c2ccccc2F)[C@@H]2CCN(c3cnc4c(-c5cccc6ncccc56)n[nH]c4n3)C[C@@H]21 [Example 242, ((1S,6R,7R)-7-(2-fluorophenyl)-3-(3-(quinolin-5-yl)-1H-pyrazolo[3,4-b]pyrazin-6-yl)-3-azabicyclo[4.1.0]heptan-7-yl)methanamine] | < 1000 nM | < 500 nM
NC[C@]1(c2ccccc2F)[C@@H]2CCN(c3cnc4c(-c5ccc6n[nH]cc6c5Cl)n[nH]c4n3)C[C@@H]21 [Example 243, ((1S,6R,7R)-3-(3-(4-chloro-2H-indazol-5-yl)-1H-pyrazolo[3,4-b]pyrazin-6-yl)-7-(2-fluorophenyl)-3-azabicyclo[4.1.0]heptan-7-yl)methanamine] | < 1000 nM | < 500 nM
CN1Cc2cc(-c3n[nH]c4nc(N5CC[C@@H]6[C@H](C5)[C@@]6(CN)c5ccccc5F)cnc34)ccc2C1=O [Example 244, 5-(6-((1S,6R,7R)-7-(aminomethyl)-7-(2-fluorophenyl)-3-azabicyclo[4.1.0]heptan-3-yl)-1H-pyrazolo[3,4-b]pyrazin-3-yl)-2-methylisoindolin-1-one] | < 1000 nM | < 500 nM
N#Cc1ccc(-c2n[nH]c3nc(N4CC[C@@H]5[C@H](C4)[C@@]5(CN)c4ccccc4F)cnc23)c(Cl)c1 [Example 245, 4-(6-((1S,6R,7R)-7-(aminomethyl)-7-(2-fluorophenyl)-3-azabicyclo[4.1.0]heptan-3-yl)-1H-pyrazolo[3,4-b]pyrazin-3-yl)-3-chlorobenzonitrile] | < 1000 nM | < 500 nM
Cc1cc(-c2n[nH]c3nc(N4CC[C@@H]5[C@H](C4)[C@@]5(CN)c4ccccc4F)cnc23)ccc1C(N)=O [Example 246, 4-(6-((1S,6R,7R)-7-(aminomethyl)-7-(2-fluorophenyl)-3-azabicyclo[4.1.0]heptan-3-yl)-1H-pyrazolo[3,4-b]pyrazin-3-yl)-2-methylbenzamide] | < 1000 nM | < 500 nM
NC[C@]1(c2ccccc2F)[C@@H]2CCN(c3cnc4c(-c5ccc6cnccc6c5)n[nH]c4n3)C[C@@H]21 [Example 247, ((1S,6R,7R)-7-(2-fluorophenyl)-3-(3-(isoquinolin-6-yl)-1H-pyrazolo[3,4-b]pyrazin-6-yl)-3-azabicyclo[4.1.0]heptan-7-yl)methanamine] | < 1000 nM | < 500 nM
NC[C@]1(c2ccccc2F)[C@@H]2CCN(c3cnc4c(-c5ccc6ccncc6c5)n[nH]c4n3)C[C@@H]21 [Example 248, ((1S,6R,7R)-7-(2-fluorophenyl)-3-(3-(isoquinolin-7-yl)-1H-pyrazolo[3,4-b]pyrazin-6-yl)-3-azabicyclo[4.1.0]heptan-7-yl)methanamine] | < 1000 nM | < 500 nM
NC[C@]1(c2ccccc2F)[C@@H]2CCN(c3cnc4c(-c5ccc6c(c5)S(=O)(=O)NC6=O)n[nH]c4n3)C[C@@H]21 [Example 249, 6-(6-((1S,6R,7R)-7-(aminomethyl)-7-(2-fluorophenyl)-3-azabicyclo[4.1.0]heptan-3-yl)-1H-pyrazolo[3,4-b]pyrazin-3-yl)benzo[d]isothiazol-3(2H)-one 1,1-dioxide] | > 5000 nM | < 500 nM
Cc1cc(C(N)=O)ccc1-c1n[nH]c2nc(N3CC[C@@H]4[C@H](C3)[C@@]4(CN)c3ccccc3F)cnc12 [Example 250, 4-(6-((1S,6R,7R)-7-(aminomethyl)-7-(2-fluorophenyl)-3-azabicyclo[4.1.0]heptan-3-yl)-1H-pyrazolo[3,4-b]pyrazin-3-yl)-3-methylbenzamide] | < 1000 nM | < 500 nM
NC[C@]1(c2ccccc2F)[C@@H]2CCN(c3cnc4c(-c5ccc6c(c5)C(=O)NCC6)n[nH]c4n3)C[C@@H]21 [Example 251, 7-(6-((1S,6R,7R)-7-(aminomethyl)-7-(2-fluorophenyl)-3-azabicyclo[4.1.0]heptan-3-yl)-1H-pyrazolo[3,4-b]pyrazin-3-yl)-3,4-dihydroisoquinolin-1(2H)-one] | < 1000 nM | < 500 nM
NC[C@]1(c2ccccc2F)[C@@H]2CCN(c3cnc4c(-c5ccc6cccnc6c5)n[nH]c4n3)C[C@@H]21 [Example 252, ((1S,6R,7R)-7-(2-fluorophenyl)-3-(3-(quinolin-7-yl)-1H-pyrazolo[3,4-b]pyrazin-6-yl)-3-azabicyclo[4.1.0]heptan-7-yl)methanamine] | < 1000 nM | < 500 nM
NC[C@]1(c2ccccc2F)[C@@H]2CCN(c3cnc4c(-c5cc(Cl)c(C(N)=O)cc5F)n[nH]c4n3)C[C@@H]21 [Example 253, 4-(6-((1S,6R,7R)-7-(aminomethyl)-7-(2-fluorophenyl)-3-azabicyclo[4.1.0]heptan-3-yl)-1H-pyrazolo[3,4-b]pyrazin-3-yl)-2-chloro-5-fluorobenzamide] | < 1000 nM | < 500 nM
NC[C@]1(c2ccccc2F)[C@@H]2CCN(c3cnc4c(-c5ccc6cn[nH]c(=O)c6c5)n[nH]c4n3)C[C@@H]21 [Example 254, 7-(6-((1S,6R,7R)-7-(aminomethyl)-7-(2-fluorophenyl)-3-azabicyclo[4.1.0]heptan-3-yl)-1H-pyrazolo[3,4-b]pyrazin-3-yl)phthalazin-1(2H)-one] | < 1000 nM | < 500 nM
NC[C@]1(c2ccccc2F)[C@@H]2CCN(c3cnc4c(-c5ccc6cc(Cl)cnc6c5)n[nH]c4n3)C[C@@H]21 [Example 255, ((1S,6R,7R)-3-(3-(3-chloroquinolin-7-yl)-1H-pyrazolo[3,4-b]pyrazin-6-yl)-7-(2-fluorophenyl)-3-azabicyclo[4.1.0]heptan-7-yl)methanamine] | > 5000 nM | < 500 nM
NC[C@]1(c2ccccc2F)[C@@H]2CCN(c3cnc4c(-c5ccc(-c6cn[nH]c6)cc5Cl)n[nH]c4n3)C[C@@H]21 [Example 256, ((1S,6R,7R)-3-(3-(2-chloro-4-(1H-pyrazol-4-yl)phenyl)-1H-pyrazolo[3,4-b]pyrazin-6-yl)-7-(2-fluorophenyl)-3-azabicyclo[4.1.0]heptan-7-yl)methanamine] | < 1000 nM | < 500 nM
NC[C@]1(c2ccccc2F)[C@@H]2CCN(c3cnc4c(-c5ccc(C(=O)O)c6ccccc56)n[nH]c4n3)C[C@@H]21 [Example 257, 4-(6-((1S,6R,7R)-7-(aminomethyl)-7-(2-fluorophenyl)-3-azabicyclo[4.1.0]heptan-3-yl)-1H-pyrazolo[3,4-b]pyrazin-3-yl)-1-naphthoic acid] | > 5000 nM | < 500 nM
NC[C@]1(c2ccccc2F)[C@@H]2CCN(c3cnc4c(-c5ccc6nccc(N)c6c5)n[nH]c4n3)C[C@@H]21 [Example 258, 6-(6-((1S,6R,7R)-7-(aminomethyl)-7-(2-fluorophenyl)-3-azabicyclo[4.1.0]heptan-3-yl)-1H-pyrazolo[3,4-b]pyrazin-3-yl)quinolin-4-amine] | > 5000 nM | < 500 nM
Cc1c(-c2n[nH]c3nc(N4CC[C@@H]5[C@H](C4)[C@@]5(CN)c4ccccc4F)cnc23)ccc2[nH]c(=O)[nH]c12 [Example 259, 5-(6-((1S,6R,7R)-7-(aminomethyl)-7-(2-fluorophenyl)-3-azabicyclo[4.1.0]heptan-3-yl)-1H-pyrazolo[3,4-b]pyrazin-3-yl)-4-methyl-1,3-dihydro-2H-benzo[d]imidazol-2-one] | < 1000 nM | < 500 nM
NC[C@]1(c2ccccc2F)[C@@H]2CCN(c3cnc4c(-c5ccc6nccc(=O)n6c5)n[nH]c4n3)C[C@@H]21 [Example 260, 7-(6-((1S,6R,7R)-7-(aminomethyl)-7-(2-fluorophenyl)-3-azabicyclo[4.1.0]heptan-3-yl)-1H-pyrazolo[3,4-b]pyrazin-3-yl)-4H-pyrido[1,2-a]pyrimidin-4-one] | > 5000 nM | < 500 nM
Cc1c(-c2n[nH]c3nc(N4CC[C@@H]5[C@H](C4)[C@@]5(CN)c4ccccc4F)cnc23)ccc2c1n(C)c(=O)n2C [Example 261, 5-(6-((1S,6R,7R)-7-(aminomethyl)-7-(2-fluorophenyl)-3-azabicyclo[4.1.0]heptan-3-yl)-1H-pyrazolo[3,4-b]pyrazin-3-yl)-1,3,4-trimethyl-1,3-dihydro-2H-benzo[d]imidazol-2-one] | < 1000 nM | < 500 nM

Source: patent publication US20240109900A1, “AZABICYCLIC SHP2 INHIBITORS” (IRBM S.P.A., priority 2021, published 2024)
